The results in this text go back to the NIST ThermoML archive (doi:10.1021/je101130e).

Molecules are shown by their SMILES. Numbers after ± are expanded uncertainties.

This data set is described as follows: mn = molality of the nth substance listed, in mol/kg. Conditions: 298.15 K, 101 kPa, Liquid, Vibrating tube method.

What is called mass density is mass per unit of volume. With `ClCCl` [dichloromethane] + CCOS(=O)(=O)[O-].CCn1cc[n+](C)c1, the mass density by setting is: (m2 = 0.003931) 1316.39 ± 10 kg/m3; (m2 = 0.1352) 1316.68 ± 10 kg/m3.
